The nature of assay [1]: Cytotoxicity against human NCI/ADR cells by phototoxicity labeling study. Format: functional. The conditions noted are these: NCI/ADR-RES, light or radiation study, read-out: ED50 (the source's name).
The test system of assay [2] is MCF7. The experiment in a line: Cytotoxicity against human MCF7 cells by […] labeling study. The class given is functional. The conditions noted are these: MCF7, light or radiation study, read-out: ED50 (the source's name).
A short description of assay [3]: Induction of microtubule assembly by photoaffinity labeling study.
Assay [4] is described as follows: Ratio of ED50 for epothilone B to ED50 for compound for human NCI/ADR cells. The class given is functional.
The nature of assay [5]: Ratio of ED50 for epothilone B to ED50 for compound for induction of microtubule assembly by photoaffinity labeling study.
A short description of assay [6]: Induction of microtubule assembly by photoaffinity labeling study in presence of epothilone B.
Assay [7] has as its system MCF7. The assay is described as follows: Ratio of ED50 for epothilone B to ED50 for compound for human MCF7 cells. The class given is functional.

Activity calls are given as the source filed them. The calls are words filed in the database; no cut-off is given here.

Turning to `C/C(=C\c1csc(C)n1)[C@@H]1C[C@@H]2O[C@]2(C)CCC[C@H](C)[C@H](O)[C@@H](C)C(=O)C(C)(C)[C@@H](O)CC(=O)O1` [PATUPILONE], the figures for the EC50 in assay [1] and in assay [2] were 1.2 nM and 1.5 nM, respectively. The same compound yielded an ED50 in assay [3] of 1000 nM.
On to `C/C(=C\c1csc(C)n1)[C@@H]1C/C=C\CCC[C@H](C)[C@H](O)[C@@H](C)C(=O)[C@](C)(CCOC(=O)c2cccc(N=[N+]=[N-])c2)[C@@H](O)CC(=O)O1`, for which the “Ratio ED50” value in assay [4] is 833; in assay [5], 5.1; in assay [7], 632. Moreover, the EC50 in assay [1] turned out to be 1000 nM; in assay [2], 1200 nM. The result in assay [6] was inactive. In assay [3], this compound returned an ED50 of 5100 nM.
